Experiments:
[1] = Test Example 1: storage stability of pemafibrate alone (HPLC related substances); assay type: physicochemical
Protocol: In Test Examples below, measurement was performed through HPLC using an ODS column as a column and an ultraviolet spectrophotometer as a detector. 250 mg of pemafibrate was encapsulated in a polypropylene container (tight container defined in The Japanese Pharmacopoeia, 17th Edition, General Rules), and stored in a dark place at a temperature of 60° C. for 1 month. The amounts of pemafibrate-derived decomposition products (related substances) before the start of storage and after storage at 60° C. for 1 month were evaluated through the following method. The sum of related substance-derived peak areas was evaluated in terms of a ratio (%) to the pemafibrate-derived peak area using an HPLC apparatus, and the ratio was defined as the “Total amount (%) of related substances”.

[2] = Test Example 3: interaction study, visual examination of discoloration; assay type: physicochemical
Protocol: The states (the presence or absence of discoloration) of the samples before the start of storage and after storage at 60°G for 2 weeks were visually examined.

increase in the amount of related substances (in words) ([1]; after storage at 60° C. for 1 month): no substantive increase | Total amount (%) of related substances, Before storage ([1]; before start of storage, sum of related substance peak areas as ratio to pemafibrate peak area, HPLC): <0.05% | Total amount (%) of related substances, After storage at 60° C. for 1 month ([1]; polypropylene tight container, dark place, 60° C., 1 month, HPLC peak area ratio): <0.05% | State, Before storage ([2]; before start of storage): White | State, After storage at 60° C. for 2 weeks ([2]; polypropylene tight container, dark place, 60° C., 2 weeks): White
SMILES: CC[C@@H](Oc1cccc(CN(CCCOc2ccc(OC)cc2)c2nc3ccccc3o2)c1)C(=O)O [Pemafibrate alone, (2R)-2-[3-([1,3-Benzoxazol-2-yl[3-(4-methoxyphenoxy)propyl]amino]methyl)phenoxy]butanoic acid]

Source: patent US20230414578A1, “PHARMACEUTICAL COMPOSITION” (KOWA COMPANY, LTD., priority 2017, published 2023)
